How the values were obtained:
Male beagle dogs = assay: Serum triglyceride in beagle dogs; format: in vivo, dog; details: pravastatin 10 mg/kg/day dosed Weeks 1-11; Week 10; mean ± SEM, n=6
Description: Following this initial four week dose-ranging study, dogs from the two groups receiving 10 mg/kg/day pravastatin (a.m. and p.m. dosing groups) were randomized into two new treatment groups based on serum total cholesterol levels to initiate the combination treatment study. One group received an empty capsule (a.m. dosing) and 10 mg/kg/day pravastatin (p.m. dosing) and the other received 4.0 mg/kg/day compound A-5 (a.m. dosing) and 10 mg/kg/day pravastatin (p.m. dosing). A third group that had received empty capsules (vehicle) in the dose-ranging study was used for compound A-5 monotherapy and was administered 4.0 mg/kg/day compound A-5 (a.m. dosing) and an empty capsule (p.m. dosing). […]
Blood was collected from the cephalic vein of each dog into serum separator tubes. […] Commercial calibrator and quality control materials were analyzed with each run to verify assay accuracy and precision. […]
Serum lipid measurements were obtained as described in Example 3 above except that blood was collected from either the cephalic or jugular vein of each dog into serum separator tubes and the blood was centrifuged at 2000 rpm for 20 minutes. Table X-4A below reports the data measured on the effect of the compound A-5/pravastatin combination therapy on serum total cholesterol. […]

[1] = Water uptake experiments (Dynamic Vapor Sorption); format: physicochemical; details: equilibrated under 80% relative humidity (RH) air at 25° C.
Description: A dry sample of the crystalline form having a melting point or a decomposition point of about 278° C. to about 285° C. (i.e., Form II) typically gains less than about 1% of its own weight when equilibrated under 80% relative humidity (RH) air at 25° C. […] For the present purposes, the term “essentially 0% RH” means less than about 1% RH. The term “equilibrated” means that the change in weight of a sample over time at a given relative humidity is less than 0.0003% ((dm/dt)/m0×100, where m is mass in mg, m0 is initial mass, and t is time in minutes).
Water sorption experiments are performed on a Dynamic Vapor Sorption (DVS) apparatus (DVS-1000 manufactured by Surface Measurements Systems, Inc.). Experiments are performed at 25° C. by initially drying the material of interest (about 10 mg sample) from 30% relative humidity (RH) (ambient room condition) to about 9% RH in a stepwise fashion (10% RH step) by purging with dry nitrogen until no further weight change was observed. The samples are then exposed to a stepwise (10% RH steps) increase in RH from about 0 to about 90% RH. Each successive step is initiated when the change in weight over time at the relative humidity was less than 0.0003% ((dm/dt)/m0×100, where m is mass in mg, m0 is initial mass, and t is time in minutes). […] The data are collected on a computer and analyzed using SMS' proprietary MS-Excel macro interface software.

For `CC[C@H](C)C(=O)O[C@H]1C[C@H](O)C=C2C=C[C@H](C)[C@H](CC[C@@H](O)C[C@@H](O)CC(=O)O)[C@H]21` [pravastatin, Pravastatin], the “TOTAL SERUM TRIGLYCERIDE” value (Male beagle dogs) was 43 ± 5 mg/dL.

With `CCCCC1(CCCC)CS(=O)(=O)c2ccc(N(C)C)cc2[C@@H](c2ccc(OCc3ccc(C[N+]45CCN(CC4)CC5)cc3)cc2)[C@H]1O.[Cl-]` [Form II, (4R,5R)-1-((4-(4-(3,3-dibutyl-7-(dimethylamino)-2,3,4,5-tetrahydro-4-hydroxy-1,1-dioxido-1-benzithiepin-5-yl)phenoxy)methyl)phenyl)methyl-4-aza-1-azoniabicyclo[2.2.2]octane chloride] the “weight gain of a dry sample (of its own weight)” value [1] was “less than 1%”.

Source: US20030232834A1, “Combination therapy for the prophylaxis and treatment of hyperlipidemic conditions and disorders” (priority 2002, published 2003)
